Results as given in article PMC12608305, “Rapid Hemi-Synthesis of Multifunctional Amphiphilic Derivatives Based on Polyphenolic Extractives: Surface Activity, Antioxidant and Antibacterial Properties” (Molecules, 2025).
≈ marks a conversion by molar mass, not a printed value. Like-named read-outs stand apart in the source and are kept apart here.

What was measured:
[1] = Surface tension in water by the Wilhelmy plate method (surfactant properties); format: physicochemical; details: 25 °C; for Minimum occupied area per molecule at the air–water interface (σ): calculated from curve log C vs. γ; for Critical aggregation concentration (CAC): from curve log C vs. γ
Procedure: The surface tension (γ) in water was determined using the Wilhelmy plate method at 25 °C. […] With this curve, parameters such as critical aggregation concentration (CAC) and minimum occupied area per molecule at the air–water interface (σ) were calculated, as well as the surface tension that remains constant from CAC (γw).
Surface tension (γ) was obtained by the Wilhelmy plate method, using a Force Tensiometer KRUSS at 25 °C. […] The curve log C vs. γ allowed us to calculate critical aggregate concentration (CAC), minimum occupied area per molecule at the air–water interface (σ) and the surface tension (γw) that remains constant after the CAC was obtained. Each measurement was conducted in triplicate.

[2] = Water solubility by saturating water, lyophilizing and weighing; format: physicochemical; details: thermodynamic from solid; saturated water
Text: Solubility in water was expressed in mol/L (M).

Escherichia coli = test: Antibacterial activity by resazurin reduction test; format: cell-based; details: fluorescence over 72 h, compounds in DMSO, triplicate, read-out: Antibacterial Activity Against E. coli: IC50
Text: These properties are usually studied by dilution and disk diffusion assay. The resazurin test is another method that can be used for measuring antibacterial activity. It is a protocol based on cell viability assays. […] This process leads to the formation of a pink fluorescent substance called resorufin. This reduction allows bacterial metabolic activity to be measured directly by measuring fluorescence. This is used to determine the antibacterial activity of the compounds being tested, using a fluorescence microplate reader. The lower the resorufin production, the lower the measured fluorescence and the higher the antibacterial activity.
Resazurin is a blue colorant that reduces to the fluorescent pink resorufin when metabolized by the cells from bacterial respiratory chains. The metabolic activity of the cells was measured by reading the fluorescence over 72 h using a BioTek FLx800 Fluorescence Microplate Reader.
Strains of Escherichia coli were cultured for 12 h on solid LB medium (Luria–Bertani) at 35 °C. The next day, some colonies were taken and placed in a nutrient broth and incubated at 35 °C until an optical density of 0.4 was obtained. […] A control with ethoxyethanol was performed. A positive control to verify the growth of the bacteria in the absence of catechin or hemi-synthesis compound was performed as well. The IC50 was calculated using the formula IC50 = (y − b)/a obtained from the equation of the line y = ax + b, where a is the directing coefficient and b the y-intercept. Each measurement was conducted in triplicate.

[3] = Radical scavenging activity by the DPPH method; format: biochemical; details: DPPH 10^−4 M in methanol, triplicate
Procedure: This method measures the antioxidant capacity of a compound to reduce the purple-colored DPPH radical solution to yellow-colored DPPH-H. DPPH solution was prepared at a concentration of 10^−4 M in methanol. The IC50 was calculated using the formula IC50 = (y − b)/a obtained from the equation of the line y = ax + b where a is the directing coefficient and b the y-intercept. Each measurement was conducted in triplicate.

[4] = DPPH; cited from earlier work
E. coli = system: E. coli; design: method as in PMID 743641; details: cited from earlier work
[5] = design: method as in doi:10.1016/j.fluid.2014.09.013; details: anhydrous catechin; cited from earlier work

CCCCCCCC(=O)OC1Cc2c(O)cc(O)cc2OC1c1ccc(O)c(O)c1 (stereo not shown) [6a, 2-(3,4-Dihydroxyphenyl)-5,7-dihydroxychroman-3-yl octanoate]
Surface tension from CAC (γw) [1]: 43 mN/m
Minimum occupied area per molecule at the air–water interface (σ) [1]: 14 Å^2/molecule
Critical aggregation concentration (CAC) [1]: 890 µM
solubility [2]: 6000 µM (≈ 2500 µg/mL)

CCCCCCCCCCCC(=O)OC1Cc2c(O)cc(O)cc2OC1c1ccc(O)c(O)c1 (stereo not shown) [6b, 2-(3,4-Dihydroxyphenyl)-5,7-dihydroxychroman-3-yl dodecanoate]
Surface tension from CAC (γw) [1]: 49 mN/m
Minimum occupied area per molecule at the air–water interface (σ) [1]: 17 Å^2/molecule
Critical aggregation concentration (CAC) [1]: 680 µM
solubility [2]: 4800 µM (≈ 2270 µg/mL)

CCCCCCCCCCCCCC(=O)OC1Cc2c(O)cc(O)cc2OC1c1ccc(O)c(O)c1 (stereo not shown) [6c, 2-(3,4-Dihydroxyphenyl)-5,7-dihydroxychroman-3-yl tetradecanoate]
Surface tension from CAC (γw) [1]: 41 mN/m
Minimum occupied area per molecule at the air–water interface (σ) [1]: 23 Å^2/molecule
Critical aggregation concentration (CAC) [1]: 590 µM
solubility [2]: 4800 µM (≈ 2400 µg/mL)

CCCCCCCCCCCCCCCC(=O)OC1Cc2c(O)cc(O)cc2OC1c1ccc(O)c(O)c1 (stereo not shown) [6d, 2-(3,4-Dihydroxyphenyl)-5,7-dihydroxychroman-3-yl hexadecanoate]
Surface tension from CAC (γw) [1]: 42 mN/m
Minimum occupied area per molecule at the air–water interface (σ) [1]: 29 Å^2/molecule
Critical aggregation concentration (CAC) [1]: 10 µM
solubility [2]: 240 µM (≈ 127 µg/mL)

CCCCCCCC(=O)N[C@@H](C)C(=O)OC1Cc2c(O)cc(O)cc2OC1c1ccc(O)c(O)c1 (stereo partly shown) [7a, 2-(3,4-Dihydroxyphenyl)-5,7-dihydroxychroman-3-yl octanoylalaninate]
IC50 (Escherichia coli): 32 ± 3 mM
Surface tension from CAC (γw) [1]: 35 mN/m
Minimum occupied area per molecule at the air–water interface (σ) [1]: 8 Å^2/molecule
Critical aggregation concentration (CAC) [1]: 100 µM
solubility [2]: 1300 µM (≈ 634 µg/mL)
Radical Scavenging Activity: IC50 [3]: 2.06 ± 0.04 µg/mL

CCCCCCCCCCCC(=O)N[C@@H](C)C(=O)OC1Cc2c(O)cc(O)cc2OC1c1ccc(O)c(O)c1 (stereo partly shown) [7b, 2-(3,4-Dihydroxyphenyl)-5,7-dihydroxychroman-3-yl dodecanoylalaninate]
IC50 (Escherichia coli): 34 ± 3 mM
Surface tension from CAC (γw) [1]: 32 mN/m
Minimum occupied area per molecule at the air–water interface (σ) [1]: 10 Å^2/molecule
Critical aggregation concentration (CAC) [1]: 50 µM
solubility [2]: 360 µM (≈ 196 µg/mL)
Radical Scavenging Activity: IC50 [3]: 2.42 ± 0.06 µg/mL

CCCCCCCCCCCCCC(=O)N[C@@H](C)C(=O)OC1Cc2c(O)cc(O)cc2OC1c1ccc(O)c(O)c1 (stereo partly shown) [7c, 2-(3,4-Dihydroxyphenyl)-5,7-dihydroxychroman-3-yl tetradecanoylalaninate]
IC50 (Escherichia coli): 23 ± 1 mM
Surface tension from CAC (γw) [1]: 33 mN/m
Minimum occupied area per molecule at the air–water interface (σ) [1]: 19 Å^2/molecule
Critical aggregation concentration (CAC) [1]: 40 µM
solubility [2]: 580 µM (≈ 332 µg/mL)
Radical Scavenging Activity: IC50 [3]: 2.01 ± 0.05 µg/mL

CCCCCCCCCCCCCCCC(=O)N[C@@H](C)C(=O)OC1Cc2c(O)cc(O)cc2OC1c1ccc(O)c(O)c1 (stereo partly shown) [7d, 2-(3,4-Dihydroxyphenyl)-5,7-dihydroxychroman-3-yl hexadecanoylalaninate]
Surface tension from CAC (γw) [1]: 32 mN/m
Minimum occupied area per molecule at the air–water interface (σ) [1]: 45 Å^2/molecule
Critical aggregation concentration (CAC) [1]: 2 µM
solubility [2]: 22 µM (≈ 13.2 µg/mL)
Radical Scavenging Activity: IC50 [3]: 26.73 ± 0.43 µg/mL

COc1ccc(O)c(C(C)(C)C)c1 [BHA, Butylated hydroxyanisole]
Radical Scavenging Activity: IC50 [4]: 21.3 ± 0.12 µg/mL
growth of E. coli (E. coli; at concentrations above 100 μg/mL): 33%

Cc1cc(C(C)(C)C)c(O)c(C(C)(C)C)c1 [BHT, Butylated hydroxytoluene]
Radical Scavenging Activity: IC50 [4]: 12.8 ± 0.08 µg/mL
effect on growth of E. coli (E. coli; regardless of the concentration): fails to decrease the growth of E. coli

Oc1cc(O)c2c(c1)O[C@H](c1ccc(O)c(O)c1)[C@@H](O)C2 [Catechin, (+)-catechin, reference compound]
IC50 (Escherichia coli): 36 ± 2 mM
Water Solubility [5]: 15700 µM
Radical Scavenging Activity: IC50 [3]: 2.43 ± 0.03 µg/mL

O=C(O)/C=C/c1ccc(O)c(O)c1 [caffeic acid]
Radical Scavenging Activity: IC50 [4]: 10.64 µg/mL

O=C(O)c1cc(O)c(O)c(O)c1 [gallic acid]
Radical Scavenging Activity: IC50 [4]: 2.04 ± 0.03 µg/mL

O=c1c(O)c(-c2ccc(O)c(O)c2)oc2cc(O)cc(O)c12 [quercetin]
Radical Scavenging Activity: IC50 [4]: 1.59 ± 0.02 µg/mL

COc1cc(C[C@@H](CO)[C@H](CO)Cc2ccc(O)c(OC)c2)ccc1O [secoisolariciresinol]
Radical Scavenging Activity: IC50 [4]: 9.39 ± 0.01 µg/mL

O=C(OC[C@H]1O[C@@H](OC(=O)c2cc(O)c(O)c(OC(=O)c3cc(O)c(O)c(O)c3)c2)[C@H](OC(=O)c2cc(O)c(O)c(OC(=O)c3cc(O)c(O)c(O)c3)c2)[C@@H](OC(=O)c2cc(O)c(O)c(OC(=O)c3cc(O)c(O)c(O)c3)c2)[C@@H]1OC(=O)c1cc(O)c(O)c(OC(=O)c2cc(O)c(O)c(O)c2)c1)c1cc(O)c(O)c(OC(=O)c2cc(O)c(O)c(O)c2)c1 [tannic acid]
Radical Scavenging Activity: IC50 [4]: 23.65 µg/mL

O=C1c2c(O)cc(O)cc2OC(c2ccc(O)c(O)c2)C1O (stereo not shown) [taxifolin]
Radical Scavenging Activity: IC50 [4]: 10.06 ± 1.08 µg/mL
